Laboratory results: the supplement of paper PMC10290057
Structures can show the parent of a compound that is named as a salt.

System: HCT116
Test: efficacy (fitted maximal change in viability relative to DMSO control); higher = less cytotoxic (negative = loss of viability)
Conditions: 48 h
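Note: Luminescence-based viability readout, five doses per compound, normalized against on-plate DMSO and empty-well controls, followed by dose-response curve fitting for every drug.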

| Structure (SMILES) | efficacy |
| --- | --- |
| CCOC1=CC=C(C=C1)N2C(=O)C3=CC=CN=C3/N=C2/[C@@H](C)N(CC4=CC=CN=C4)C(=O)CC5=CC=C(F)C(=C5)C(F)(F)F | -9.22% |
| O=C(NCC(=O)N1CCCC1)Nc1ccc2cnccc2c1 [SGC-707] | -18% |
| CN1C(=O)C(Cc2c[nH]c3ccccc23)NC1=S (configuration not stated) [Necrostatin-1] | -7.49% |
| O=C(O)C(=O)c1cn(Cc2ccccc2)c2ccc(-c3ccc(OC(F)(F)F)cc3)cc12 [Tiplasinin] | -22.4% |
| CCC/1=C(/NC2=C(C=N[N]2C1=O)C#N)C3=CC=CC=C3C [CPI-4203] | 17.2% |
| O=C(N[C@H]1CN2CCC1CC2)c1ccc(Cl)cc1 | -55.8% |
| COC1=C(OC)C=C2C(=CC=NC2=C1)OC3=CC=C(NC(=O)\C4=C\N(C(C)C)C(=O)N(C4=O)C5=CC=C(F)C=C5)C=C3F | -13.9% |
| CC(C)c1onc(-c2c(Cl)cccc2Cl)c1COc1ccc(/C=C/c2cccc(C(=O)O)c2)c(Cl)c1 [GW-4064X] | -29.7% |
| CNC(=O)CN1CCC(Oc2cc3c(Nc4cccc(Cl)c4F)ncnc3cc2OC)CC1 [Sapitinib] | -49.3% |
| CC(C(=O)O)c1ccc(-c2ccccc2)c(F)c1 (configuration not stated) [Flurbiprofen] | -9.87% |
| O=C(Nc1cccnc1)c1cc(-c2ccnc(F)c2)ccc1OCc1ccccc1 | -24.6% |
| Cc1[nH]nc(C(F)(F)F)c1Cc1sc2c(c1C(=O)N1C[C@](C)(O)CO1)c(=O)n(C)c(=O)n2C(C)C [AZD-3965] | -11.2% |
| CCCC(CCC)C(=O)[O-] [Valproic acid sodium salt] | 14% |
| C[C@@H]1[C@H](O)[C@@H](C)/C=C/C=C/C=C/C=C/C=C/C=C/C=C/[C@H](O[C@@H]2O[C@H](C)[C@@H](O)[C@H](N)[C@@H]2O)C[C@@H]2O[C@](O)(C[C@@H](O)C[C@@H](O)[C@H](O)CC[C@@H](O)C[C@@H](O)CC(=O)O[C@H]1C)C[C@H](O)[C@H]2C(=O)O [Amphotericin B] | -15.3% |
| CC1=CC(=O)c2ccccc2C1=O [Menadione] | -10.7% |
| CCCc1cc(C(N)=S)ccn1 [Protionamide] | -9.17% |
| CC(C)(O)C(=O)Nc1ccc([N+](=O)[O-])c(C(F)(F)F)c1 [Hydroxyflutamide] | -27.7% |
| CC(=O)N1CCN(c2ccc(NC(=O)Cc3cnc(-c4ccnc(F)c4)c(C)c3)nc2)CC1 [GNF-6231] | -22.2% |
| CCCCCCCCCCCCCCCC(=O)O[C@@H]1[C@@H](O)[C@@H](O)[C@@H]([C@H](NC(=O)[C@@H]2C[C@@H](CCC)CN2C)[C@H](C)Cl)O[C@@H]1SC.Cl [Clindamycin palmitate] | -24.9% |
| CCOC(=O)O[C@@]1(CC[C@H]2[C@@H]3CCC/4=C/C(=O)/C=C\[C@]4(C)[C@H]3[C@@H](O)C[C@]12C)C(=O)OCCl [Loteprednol etabonate] | -16% |
| CC(C)NCC(O)c1ccc(O)c(O)c1 (configuration not stated) [Isoprenaline hydrochloride] | -16.7% |
| O=[S+]([O-])(c1cccc2c(I)cccc12)N1CCCNCC1 [ML-7] | -56.9% |
| CC[C@@]1(O)C(=O)OC\C2=C1\C=C\3N(CC4=C3N=C5C=CC=CC5=C4)C2=O [Camptothecin] | -65.5% |
| CN(C)N(C)C(=O)[C@@]1(Cc2ccccc2)CCCN(C(=O)[C@@H](Cc2c[nH]c3ccccc23)NC(=O)C(C)(C)N)C1 [Anamorelin] | -33.8% |

| Structure (SMILES) | efficacy |
| --- | --- |
| CO[C@H]1/C=C/O[C@@]2(C)Oc3c(C)c(O)c4c(O)c(c(/C=N/N5CCN(C)CC5)c(O)c4c3C2=O)NC(=O)/C(C)=C\C=C\[C@H](C)[C@H](O)[C@@H](C)[C@@H](O)[C@@H](C)[C@H](OC(C)=O)[C@@H]1C [Rifampicin] | -20.5% |
| O=C(O)/C(S)=C/c1ccc(I)cc1 | -6.45% |
| C[C@@H](CN1CC(=O)NC(=O)C1)N1CC(=O)NC(=O)C1 [Dexrazoxane hydrochloride] | -22.3% |
| CC[S+](=O)([O-])c1ccc2oc(-c3ccc4ccccc4c3)nc2c1 [Ezutromid] | -24.2% |
| NC(=O)c1ncn([C@@H]2O[C@H](CO)[C@@H](O)[C@H]2O)c1O [Mizoribine] | 18% |
| CC[C@H](/C=C/[C@@H](C)[C@H]1CC[C@H]2[C@@H]3CC=C4C[C@@H](O)CC[C@]4(C)[C@H]3CC[C@]12C)C(C)C [Stigmasterol] | 11.5% |
| CC(C)Nc1cc(C(F)(F)F)cc2nc(NC(=O)c3cccnc3)nn12 [S-99] | -15% |
| CN(C(Cc1ccc(OS(=O)(=O)c2cccc3cnccc23)cc1)C(=O)N1CCN(c2ccccc2)CC1)S(=O)(=O)c1cccc2cnccc12 (configuration not stated) [KN-62] | -21.2% |
| CCn1c(C(=O)N(C2CC2)C2CC2)cc2c3c(ncn3C)c(Nc3cc(C)n(C)n3)nc21 | -25.7% |
| CCC1=C(C)CN(C(=O)NCCc2ccc(S(=O)(=O)NC(=O)N[C@H]3CC[C@H](C)CC3)cc2)C1=O [Glimepiride] | -14.8% |
| O=C(O)CCCCCC(=O)NN=C1CCCC1 [IDE-2] | -8.18% |
| N[S+](=O)([O-])c1cc2c(cc1Cl)NC(C(Cl)Cl)N[S+]2(=O)[O-] (configuration not stated) [Trichlormethiazide] | 6.79% |
| CC(C)c1ccc2oc3nc(N)c(C(=O)O)cc3c(=O)c2c1 [Amlexanox] | -24.9% |
| O=C(CO)N1CCC(c2n[nH]c(-c3ccc(Cl)cc3)c2-c2ccncn2)CC1 [SD-06] | 17.8% |
| COC(=O)/C=C/C(=O)OC [Dimethyl fumarate] | -18.4% |
| NC(=O)c1ccc2[nH]ccc2c1 [SD-169] | -11.3% |
| NC(=O)[C@@H](CCC(F)(F)F)N(Cc1ccc(-c2ncon2)cc1F)[S+](=O)([O-])c1ccc(Cl)cc1 [Avagacestat] | -65.8% |
| C[C@@H]\1/N=C(/N)NC(=N1)\N(C)C [Imeglimin] | -5.96% |
| CCCCN(CCCC)CC(O)c1cc(Cl)cc2c1-c1ccc(Cl)cc1/C2=C/c1ccc(Cl)cc1 (configuration not stated) [Lumefantrine] | -26.5% |
| CCNC(=O)CCC/C=C\C[C@@H]1[C@@H](/C=C/C(O)CCc2ccccc2)[C@@H](O)C[C@@H]1O (some centres not stated) [Bimatoprost] | -24.4% |
| O=C1NC(=O)/C(=C\c2ccc(-c3ccc(F)cc3)o2)S1 | -23.2% |
| CC(=O)O[C@@]1(CC[C@H]2[C@@H]3\C=C(Cl)/C4=C/C(=O)[C@@H]5C[C@@H]5[C@]4(C)[C@H]3CC[C@]12C)C(C)=O [Cyproterone acetate] | -60.6% |
| COC/1=C/[C@@H]2[C@@H]3CC4=C(C(=C(OC)C=C4)O)[C@]2(CCN3C)CC1=O [Sinomenine] | -20.7% |
| CN1CCN(C(=O)[C@H]2[C@@H](C(=O)O)[C@H]3CC[C@@H]2O3)CC1 [EMPM] | -12% |

| Structure (SMILES) | efficacy |
| --- | --- |
| CCC[C@H](N[C@@H](C)C(=O)N1[C@H](C(=O)O)C[C@@H]2CCCC[C@@H]21)C(=O)OCC [Perindopril] | 9% |
| O=[S+]([O-])(CC1CS1)c1ccc(Oc2ccccc2)cc1 (configuration not stated) [SB-3CT] | -55.8% |
| COc1ccc2[nH]cc(CCNC(C)=O)c2c1 [Melatonin] | -10.4% |
| O=C(NCCCNc1nc(Nc2cccc(NC(=O)N3CCCC3)c2)ncc1I)c1cccs1 [BX-795] | -76.5% |
| O=C(NOCCO)c1cc(CN2OCCCC2=O)c(F)c(F)c1Nc1ccc(I)cc1F | -60.6% |
| Nc1nc(Cl)nc2c1ncn2[C@@H]1O[C@H](CO)[C@@H](O)[C@@H]1F [Clofarabine] | -51.1% |
| C[C@@H]1C(=O)OC2[C@H](O)[C@]34[C@H]5C[C@@H](C(C)(C)C)[C@]36[C@@H](OC(=O)[C@@H]6O)O[C@@]4(C(=O)O5)[C@]21O (some centres not stated) [Ginkgolide B] | -9.74% |
| COc1cc2ncnc(Nc3cc(Br)c(O)c(Br)c3)c2cc1OC [WHI-P97] | -37.8% |
| CCOC(=O)/C=C/[C@H](C[C@@H]1CCNC1=O)NC(=O)[C@@H](CC(=O)[C@@H](NC(=O)c1cc(C)on1)C(C)C)Cc1ccc(F)cc1 [Rupintrivir] | -12.7% |
| O=C(CCCc1ccc2cccnc2n1)NCc1cc(-c2ccc(F)c(C(F)(F)F)c2)no1 [PRP003-062] | -32.2% |
| C[C@]1(C(=O)N(CCCC(=O)O)Cc2cccc(Cl)c2)CCN1C(=O)c1csc2ccccc12 [GLPG-0974] | -21.2% |
| CC(C)Cn1cnc2c(N)nc3ccccc3c21 [Imiquimod] | -14.9% |
| Cc1cc2c(cc1C1(c3ccc(C(=O)O)cn3)CC1)C(C)(C)CCC2(C)C | -25.8% |
| CC(C)(C)C(=O)Oc1ccc2c(c1)nc(NC(=O)c1cccc([N+](=O)[O-])c1)n2CCCO | -19.1% |
| CCC(C)CCCCC(=O)N[C@@H](CCN)C(=O)NC(C(=O)N[C@H](CCN)C(=O)N[C@@H]1CCNC(=O)C([C@@H](C)O)NC(=O)[C@@H](CCN)NC(=O)[C@@H](CCN)NC(=O)[C@@H](CC(C)C)NC(=O)[C@H](Cc2ccccc2)NC(=O)[C@H](CCN)NC1=O)[C@@H](C)O (some centres not stated) [Polymyxin B sulphate] | -10.6% |
| COc1ccc2c(c1)CC[C@@H](CN(C)CC(=O)O)[C@H]2c1ccccc1 | -15.5% |
| CC[C@H](NC(=O)[C@H](C)NC)C(=O)N1C[C@@H](O)C[C@H]1Cc1c(-c2[nH]c3cc(F)ccc3c2C[C@@H]2C[C@H](O)CN2C(=O)[C@H](CC)NC(=O)[C@H](C)NC)[nH]c2cc(F)ccc12 [Birinapant] | -49.9% |
| CCCN(CCC)C(=O)C(CCC(=O)O)NC(=O)c1ccccc1 (configuration not stated) [Proglumide] | -18.3% |
| N[C@@H](Cc1cc(I)c(Oc2cc(I)c(O)c(I)c2)c(I)c1)C(=O)O [L-Thyroxine] | -8.54% |
| Cc1ccccc1C(=O)Nc1ccc(C(=O)N2CCCC(O)c3cc(Cl)ccc32)c(C)c1 (configuration not stated) [Tolvaptan] | -64.3% |
| C=CC(=O)Nc1cc(N2CCN(CC)CC2)ccc1Nc1cc(N(C)C(=O)Nc2c(Cl)c(OC)cc(OC)c2Cl)ncn1 [H3B-6527] | -19.6% |
| CC1(C)CN(C(=O)c2ccc(-c3cccc4nc(NC(=O)C5CC5)nn34)cc2)C1 [Solcitinib] | -18.3% |
| COC(=O)N1CC2(CC2)C[C@H](C(=O)NO)[C@H]1C(=O)N1CCN(c2ccccc2)CC1 [Aderbasib] | -17% |
| Cc1cccc(-c2nn3c(c2-c2ccnc4ccc(C(N)=O)cc24)CCC3)n1 [Galunisertib] | 12.5% |
